Results taken from US20230151431A1, “METHODS AND COMPOSITIONS FOR IDENTIFYING AND TREATING GLUTAMINASE INHIBITOR-SENSITIVE CANCERS” (DANA-FARBER CANCER INSTITUTE, INC., priority 2020, published 2023).

Columns and labels:
NCI-H2122 cells = assay: Cell viability, NCI-H2122 cells with SLC7A11 knock-out and/or SLC25A45 over-expression; assay type: cell-based, human; conditions: for effect of SLC7A11 knock-out and SLC25A45 over-expression on cell viability under treatment: SLC7A11 knock-out or SLC25A45 over-expression vs wild type
Method: (§1) Cell viability was assayed using a modified manufacturer's protocol for CellTiter-Glo® (Promega #G7573). Cells were seeded at a density of 2000 cells per well in a 96 well black, clear bottom plate (Corning #89091-012) in 100 uL total media per well. The following day different concentrations of compounds at various doses were printed in triplicate in a random well format using the Tecan D300e Digital Dispenser. After 72 hours, 60 μL of a 1:3 solution of CellTiterGlo reagent in 1×PBS (Corning #01018002) was added per well and allowed to incubate at RT for 10 mins. Luminescence was measured with an integration time of 0.1 s using Envision Microplates Reader (PERKIN ELMER #2105-0010). Biological replicates were averaged and normalized to vehicle control. Dose curves were generated using Graphpad Prism.

[1] = test system: SLC7A11 knock-out LU99 cells; assay: CellTiter-Glo cell viability, SLC7A11 knock-out LU99 cells vs LacZ control; assay type: cell-based, human
Method: as §1

[2] = test system: LU99 cells with ectopic expression of FAM3B; assay: CellTiter-Glo cell viability, LU99 cells with ectopic expression of FAM3B; assay type: cell-based, human
Method: as §1

LU99 cells = assay: CellTiter-Glo cell viability, LU99 wild type cells; assay type: cell-based; conditions: Homo sapiens, Lu-99, read-out: IC50 (percent viability)
Method: as §1

[3] = test system: LU99 cells over-expressing SLC25A45; assay: CellTiter-Glo cell viability, LU99 cells over-expressing SLC25A45; assay type: cell-based; conditions: Homo sapiens, Lu-99, SLC25A45 overexpression
Method: as §1

500 cancer cell lines = assay: PRISM multiplex cancer cell line viability screen; assay type: cell-based, human; conditions: 5,000 small molecules against 500 cancer cell lines
Method: Parental cell lines were obtained from the Cancer Cell Line Encyclopedia (CCLE) project. PRISM cell line barcoding, pooling, and screening was performed as previously described with several improvements to the original method. First, the lentiviral vector was modified to encode the unique barcode identifier at the end of the puromycin resistance gene. This enables barcodes to be detected using a variant of the mRNA capture and Luminex detection method developed for the L1000 gene expression assay. Second, a set of ten inert barcodes were spiked-in to each well of each plate after cell lysis to control for variation in PCR amplification as detailed below.
Luminex technology produced .Ixb files containing data for each Luminex bead observed during detection. These .Ixb files were processed to compute Median Fluorescence Intensity (MFI) values, calculated as the median of the values obtained for all beads corresponding to a single PRISM barcode. […]
For each cell line on each plate, the distribution of MFI values observed for the DMSO-treated negative controls was compared to that of the positive controls using a robust form of the Strictly Standardized Mean Difference (SSMD*)’. Specifically, SSMD* was calculated as: […]
Cell viability was calculated as the ratio of nMFI to the median of the nMFI from the DMSO-treated negative controls for each cell line on each plate. […]

[4] = test system: multiple solid tumor and hematopoietic cancer types; conditions: monotherapy, phase 1 clinical trials; cited from earlier work

Row | Structure (SMILES) | effect of SLC7A11 knock-out and SLC25A45 over-expression on cell viability under treatment (NCI-H2122 cells) | rescue from inhibitor-induced cell killing by knock-out of SLC7A11 [1] | change in effects on cell death by ectopic FAM3B expression ([2]; ectopic FAM3B vs wild type) | IC50 (LU99 cells) | IC50 ([2]; Homo sapiens, Lu-99, ectopic expression of FAM3B) | IC50 [3] | cell line killing in PRISM screen (500 cancer cell lines) | sensitivity of cells with combined SLC7A11 knock-out and SLC25A45 over-expression (NCI-H2122 cells; combination of SLC7A11 knock-out and SLC25A45 over-expression) | clinical response [4]
1 | O=C(Cc1ccccc1)Nc1nnc(CCSCCc2nnc(NC(=O)Cc3ccccc3)s2)s1 [BPTES, Bis-2-(5-phenylacetamido-1,3,4-thiadiazol-2-yl)ethyl sulfide] | increase cell viability | rescued sensitivity | – | – | – | – | – | – | –
2 | O=C(Cc1cccc(OC(F)(F)F)c1)Nc1ccc(CCCCc2nnc(NC(=O)Cc3ccccn3)[se]2)nn1 [Glutaminase IN 1] | increase cell viability | rescued sensitivity | – | – | – | – | – | – | –
3 | CC(=O)O[C@H]1C(=O)[C@@]2(C)[C@H]([C@H](OC(=O)c3ccccc3)[C@]3(O)C[C@H](OC(=O)[C@H](O)[C@@H](NC(=O)c4ccccc4)c4ccccc4)C(C)=C1C3(C)C)[C@]1(OC(C)=O)CO[C@@H]1C[C@@H]2O [Paclitaxel] | no significant rescue of sensitivity | – | no change | 2.2 nM | – | – | – | – | –
4 | O=C(Cc1cccc(OC(F)(F)F)c1)Nc1ccc(CCCCc2nnc(NC(=O)Cc3ccccn3)s2)nn1 [Telaglenastat] | increase cell viability | rescued | – | 1.2 nM | > 10000 nM | 22 nM | selectively kill cell lines across a broad range of lineages | almost completely resistant | only occasional responses
5 | CN(C)c1ccc(C2Nc3ccc4ccccc4c3C3=C2C(=O)CC(C)(C)C3)cc1Br (centres unmarked) [compound 968] | no significant rescue of sensitivity | not rescued | – | – | – | – | – | – | –
